Measurements as given in ChEMBL document CHEMBL1201862, “PubChem BioAssay data set” (2004).
Activity calls are given as the source filed them.

Experiments:
Paired box protein Pax-8 = Paired box protein Pax-8 (Homo sapiens, UniProt Q06710); experiment: inhibitors of PAX8-driven TPO luciferase reporter, dose response, RMG-I cells, cherry-pick (AID 687027); assay type: functional, cell-based;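 further: luciferase reporter driven by Pax8 target thyroperoxidase promoter measured by SteadyGlo luminescence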
Paired box protein Pax-8, sequence (Q06710 whole entry): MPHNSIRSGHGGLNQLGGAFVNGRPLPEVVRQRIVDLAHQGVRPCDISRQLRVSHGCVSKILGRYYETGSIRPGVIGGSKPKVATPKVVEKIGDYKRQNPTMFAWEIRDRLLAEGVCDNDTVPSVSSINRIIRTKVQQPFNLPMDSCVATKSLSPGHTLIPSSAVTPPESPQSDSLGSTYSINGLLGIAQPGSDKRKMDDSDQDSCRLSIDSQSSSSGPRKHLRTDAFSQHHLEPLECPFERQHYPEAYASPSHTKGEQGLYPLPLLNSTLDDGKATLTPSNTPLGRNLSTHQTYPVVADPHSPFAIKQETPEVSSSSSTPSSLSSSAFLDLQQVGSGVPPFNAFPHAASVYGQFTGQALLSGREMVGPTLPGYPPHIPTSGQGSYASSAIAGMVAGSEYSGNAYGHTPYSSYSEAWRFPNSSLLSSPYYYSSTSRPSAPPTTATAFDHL

[1] = cytotoxicity in OVCAR8 ovarian cancer cells, dose response, PAX8 project, cell-based, plate reader, dry powder samples (AID 743197); assay type: functional; conditions: OVCAR-8
[2] = A549 cell cytotoxicity, dose response, CellTiter-Glo luminescence, dry powder, set 17 (AID 1117284); assay type: functional, cell-based
[3] = HeLa cell cytotoxicity, dose response, cytotoxicity control, 24 h, plate reader, powder samples, set 3 (AID 651864); assay type: functional, cell-based
[4] = inhibitors of PGC1a acetylation in cells, dose response, cell-based, cherry-picked samples (AID 720514); assay type: functional;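 further: potency may reflect raised or lowered acetylation signal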
[5] = P. falciparum 3D7-ScDHODH growth inhibitors, dose response, SYBR Green, dry powder samples (AID 1159570); assay type: functional, cell-based;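 further: parasite growth measured after 72 hours of compound exposure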
[6] = HepG2 cell cytotoxicity, dose response, cytotoxicity control, plate reader, dry powder samples (AID 1159569); assay type: functional, cell-based;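 further: inhibitor potency with signal falling toward the positive control level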
[7] = P. falciparum Dd2 growth inhibitors, dose response, SYBR Green, cherry-picked samples (AID 1159567); assay type: functional, cell-based
[8] = P. falciparum Dd2 growth inhibitors, dose response, SYBR Green, dry powder samples (AID 1159566); assay type: functional, cell-based;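 further: potency for growth inhibition with lower SYBR green DNA signal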
[9] = P. falciparum ATP4 D1247Y mutant growth inhibitors, dose response, NITD609-resistant line, SYBR Green, dry powder (AID 1159571); assay type: functional, cell-based;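 further: parasites synchronized at ring stage by sorbitol before testing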
[10] = HepG2 cell cytotoxicity, dose response, cytotoxicity control, plate reader, dry powder, set 6 (AID 743311); assay type: functional, cell-based
[11] = HeLa 2N DNA content increase, dose response, cell-based, IC50 (AID 1117349); assay type: functional
[12] = Concentration-dependent survival of SW480 colon cancer line, luminescence detection with CellTiter-Glo, half-maximal inhibitory concentration (AID 1117338); assay type: functional
[13] = RKO cell viability reduction, dose response, CellTiter-Glo luminescence (AID 1117322); assay type: functional
[14] = cytotoxicity toward HCT116 cells – cell-based, CellTiter-Glo luminescence, IC50, dose response (AID 1117332); assay type: functional; conditions: HCT-116
[15] = SNU-C1 cell viability reduction, dose response, CellTiter-Glo luminescence (AID 1117323); assay type: functional, cell-based
[16] = cytotoxicity toward Colo320 cells – cell-based, CellTiter-Glo luminescence, IC50, dose response (AID 1117334); assay type: functional; conditions: COLO 320
[17] = HeLa 4N DNA content increase, dose response, cell-based, IC50 (AID 1117351); assay type: functional
[18] = cytotoxicity toward HT-29 cells – cell-based, CellTiter-Glo luminescence, IC50, dose response (AID 1117330); assay type: functional
[19] = CellTiter-Glo luminescent dose response of DLD-1 viability loss (AID 1117352); assay type: functional
[20] = HCT116 cell viability decrease, GSK3B pretreatment – CellTiter-Glo, IC50, dose response (AID 1117339); assay type: functional; conditions: HCT-116
[21] = Dose-response inhibition of insulin secretion in a rat insulinoma line at 5 mM glucose (AID 1117331); assay type: functional, cell-based; conditions: INS-1E

**Q.** With `C[C@H](O)C#Cc1ccc2c(c1)O[C@H](CN(C)Cc1ccc(-c3ccccc3)cc1)[C@H](C)CN([C@@H](C)CO)S2(=O)=O` as the compound, how does the AC50 (Paired box protein Pax-8) read?
**A.** Its AC50 is 5870 nM (active).

**Q.** What about the AC50 [1] of the same compound?
**A.** Its AC50 is 50000 nM (active).

**Q.** What about the AC50 [2] of the same compound?
**A.** Its AC50 is > 52000 nM (inactive).

**Q.** Which AC50 [3] does the source give for `c1ccc(Cn2nnc(NCc3ccc(N4CCCC4)cc3)n2)cc1` here?
**A.** The AC50 was > 160000 nM (inactive).

**Q.** Which AC50 [4] does the source give for `O=S(=O)(c1ccc(-c2ccccc2)cc1)N1C[C@@H]2N[C@H](C1)[C@@H]2c1ccc(-c2cccnc2)cc1` here?
**A.** Its AC50 is 8200 nM (active).

**Q.** And the AC50 [5]?
**A.** Its AC50 is 1290 nM (active).

**Q.** And the AC50 [6]?
**A.** The AC50 was 19500 nM (active).

**Q.** And the AC50 [7]?
**A.** Its AC50 is 2140 nM (active).

**Q.** What about the AC50 [8] of the same compound?
**A.** The AC50 was 772 nM (active).

**Q.** And the AC50 [9]?
**A.** Its AC50 is 1800 nM (active).

**Q.** For `CC(C)Oc1ccc(OCCn2c(=S)[nH]c3ccccc32)cc1`, which AC50 [10] is on record?
**A.** The AC50 was > 52000 nM (inactive).

**Q.** Which IC50 [11] does the source give for `O=C1C2CC=CCC2C(=O)N1SC(Cl)(Cl)Cl` (configuration not stated) [CAPTAN] here?
**A.** The IC50 was > 10000 nM (inactive).

**Q.** What about the IC50 [12] of the same compound?
**A.** Its IC50 is 78.8 nM (active).

**Q.** What about the IC50 [13] of the same compound?
**A.** The IC50 was 402 nM (active).

**Q.** And the IC50 [14]?
**A.** The IC50 was 1760 nM (active).

**Q.** And the IC50 [15]?
**A.** Its IC50 is 903 nM (active).

**Q.** And the IC50 [16]?
**A.** Its IC50 is 306 nM (active).

**Q.** What about the IC50 [17] of the same compound?
**A.** Its IC50 is > 10000 nM (inactive).

**Q.** What about the IC50 [18] of the same compound?
**A.** The IC50 was 500 nM (active).

**Q.** And the IC50 [19]?
**A.** Its IC50 is 348 nM (active).

**Q.** What about the IC50 [20] of the same compound?
**A.** Its IC50 is 2210 nM (active).

**Q.** Which IC50 [21] does the source give for `OC(CCN1CCCCC1)(c1ccccc1)c1ccccc1` [PRIDINOL] here?
**A.** The IC50 was 27000 nM (inactive).
